Experimental data from publication PMC7734281, “Functionalized Oxoindolin Hydrazine Carbothioamide Derivatives as Highly Potent Inhibitors of Nucleoside Triphosphate Diphosphohydrolases” (Frontiers in Pharmacology, 2020).

How the values were obtained:
Type in all cases: biochemical
m-NTPDase1 = biological target: T1, m-NTPDase1 (Mus musculus, UniProt P55772); assay: m-NTPDase1 inhibition, malachite green assay; conditions: for inhibition at 100 µM: compound 100 µM; for IC50: mean ± SEM of three independent experiments
T1 construct: made in house; host or cells: COS-7 cells, transient transfection; crude protein extract after sonication
T1 sequence (P55772 1-510): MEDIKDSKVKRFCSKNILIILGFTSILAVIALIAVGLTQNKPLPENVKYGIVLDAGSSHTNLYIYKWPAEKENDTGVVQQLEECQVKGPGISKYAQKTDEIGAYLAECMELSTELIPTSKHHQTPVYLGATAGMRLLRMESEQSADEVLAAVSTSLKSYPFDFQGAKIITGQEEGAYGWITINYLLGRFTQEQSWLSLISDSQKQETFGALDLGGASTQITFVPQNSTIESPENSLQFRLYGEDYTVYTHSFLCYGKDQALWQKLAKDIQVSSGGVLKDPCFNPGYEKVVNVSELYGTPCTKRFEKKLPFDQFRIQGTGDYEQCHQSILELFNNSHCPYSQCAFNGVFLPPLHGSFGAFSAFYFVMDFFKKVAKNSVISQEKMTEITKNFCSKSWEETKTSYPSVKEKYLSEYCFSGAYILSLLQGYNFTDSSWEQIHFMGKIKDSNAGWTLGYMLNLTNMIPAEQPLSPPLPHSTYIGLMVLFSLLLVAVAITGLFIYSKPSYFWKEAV
Description: (§1) COS-7 cells were transfected with plasmids expressing human or mouse NTPDases1, -2, -3, and -8 as previously described ([Levesque et al., 2007]; [Lecka et al., 2014]) Briefly, the confluent cells were transferred to Dulbecco’s Modified Eagle’s Medium containing no fetal bovine serum. Then, these cells were incubated with plasmid DNA (6 µg) and Lipofectamine reagent (24 µl) at 37°C. After 5 h, transfection was terminated with the addition of an equal volume of DMEM/F-12 (supplemented with 20% FBS) and cells were collected by harvesting after 40–72 h.
(§2) To prepare protein extracts, transfected COS-7 cells were washed three times with tris-saline buffer while temperature was maintained at 4°C. Then cells were scraped and resuspended in harvesting buffer containing 95 mM NaCl, 45 mM tris and 0.1 mM phenylmethylsulfonyl fluoride (pH 7.5). Cells were again washed twice by centrifugation for 5 min at 300 × g at 4°C and then resuspended in harvesting buffer (supplemented with 10 μg ml aprotinin). Following sonication, cellular debris was isolated by 10 min centrifugation at 300 g at 4°C. Subsequently, supernatant was removed very carefully and protein concentration was determined by using Bradford microplate assay while using the bovine serum albumin as a standard ([Bradford, 1976]).
(§3) The inhibitory effects of synthesized compounds on h-NTPDase1, -2, -3, and -8 were determined as described previously, although with slight modifications ([Martín-Satué et al., 2009]). Assay was conducted in a reaction medium containing 50 mM tris-HCl and 5 mM CaCl2 (pH 7.4). All the test compounds were dissolved in dimethyl sulfoxide (DMSO, 10%) and initially screened at a concentration of 100 µM. A reaction mixture containing 55 µl of assay buffer, 10 µl of test compound solution and 10 µl of h-NTPDase1 (58 ng/well) or h-NTPDase2 (79 ng/well) or h-NTPDase3 (163 ng/well) or h-NTPDase8 (66 ng/well) was incubated at 37°C for 10 min. Following the incubation, a 10 µl solution of adenosine triphosphate (ATP, 100 µm) was added as substrate and reaction mixture was again incubated for 15 min at 37°C. The reaction was stopped by adding malachite green reagent (15 µl) and placed at room temperature for 4 to 6 min. Finally, absorbance was measured at 630 nm by using Omega FLUOstar microplate reader (BMG Labtech, Ortenberg, Germany) and % inhibitions were calculated. For compounds showing more than 50% inhibition of any isozyme, dose response curves were generated and their IC50 values were determined. Three separate enzyme inhibition assays were carried out in triplicate and dose-response curve were generated by using PRISM 5.0 (GraphPad, San Diego, United States).
(§4) Same procedure was adopted to determine the inhibitory effects of compounds on mouse NTPDases (m-NTPDases). However, the amount of protein used was as follows: m-NTPDase1 (82 ng/well), m-NTPDase2 (57 ng/well), m-NTPDase3 (110 ng/well) and m-NTPDase8 (79 ng/well)

h-NTPDase2 = biological target: T2, h-NTPDase2 (Homo sapiens, UniProt Q9Y5L3); assay: h-NTPDase2 inhibition, malachite green assay; conditions: for inhibition at 100 µM: compound 100 µM; for IC50: ATP 100 µM substrate, mean ± SEM of three independent experiments
T2 construct: made in house; host or cells: COS-7 cells, transient transfection; crude protein extract after sonication
T2 sequence (Q9Y5L3 1-495): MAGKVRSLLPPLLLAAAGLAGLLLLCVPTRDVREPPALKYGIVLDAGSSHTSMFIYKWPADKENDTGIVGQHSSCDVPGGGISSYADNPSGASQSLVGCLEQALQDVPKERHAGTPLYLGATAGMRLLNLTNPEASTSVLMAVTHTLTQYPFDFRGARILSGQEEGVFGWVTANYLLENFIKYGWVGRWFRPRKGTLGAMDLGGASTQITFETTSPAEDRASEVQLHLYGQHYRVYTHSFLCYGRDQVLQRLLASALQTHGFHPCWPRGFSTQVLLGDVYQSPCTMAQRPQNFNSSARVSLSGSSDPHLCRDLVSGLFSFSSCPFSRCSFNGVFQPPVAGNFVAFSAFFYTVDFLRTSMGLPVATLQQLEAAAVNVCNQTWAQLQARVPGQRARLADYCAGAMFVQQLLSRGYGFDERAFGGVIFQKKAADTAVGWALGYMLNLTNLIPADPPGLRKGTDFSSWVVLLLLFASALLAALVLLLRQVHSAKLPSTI
Description: as §1, §2, §3

m-NTPDase2 = biological target: T3, m-NTPDase2 (Mus musculus, UniProt O55026); assay: m-NTPDase2 inhibition, malachite green assay; conditions: for inhibition at 100 µM: compound 100 µM; for IC50: mean ± SEM of three independent experiments
T3 construct: made in house; host or cells: COS-7 cells, transient transfection; crude protein extract after sonication
T3 sequence (O55026 1-495): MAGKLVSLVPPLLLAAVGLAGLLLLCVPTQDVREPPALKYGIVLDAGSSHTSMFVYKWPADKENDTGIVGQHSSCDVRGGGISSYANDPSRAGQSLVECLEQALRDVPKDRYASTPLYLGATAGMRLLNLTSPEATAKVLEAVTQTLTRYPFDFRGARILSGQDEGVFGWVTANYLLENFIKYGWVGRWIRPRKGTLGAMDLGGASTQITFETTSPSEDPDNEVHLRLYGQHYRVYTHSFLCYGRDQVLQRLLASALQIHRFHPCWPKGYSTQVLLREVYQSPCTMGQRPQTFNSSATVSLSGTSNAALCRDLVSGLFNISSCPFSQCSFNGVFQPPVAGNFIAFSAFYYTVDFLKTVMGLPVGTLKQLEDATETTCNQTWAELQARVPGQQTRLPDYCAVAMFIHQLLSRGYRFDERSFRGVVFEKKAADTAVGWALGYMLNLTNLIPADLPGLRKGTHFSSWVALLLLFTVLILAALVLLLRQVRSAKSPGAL
Description: as §1, §2, §3, §4

| SMILES | inhibition at 100 µM (m-NTPDase1) | inhibition at 100 µM (h-NTPDase2) | inhibition at 100 µM (m-NTPDase2) | Ki (m-NTPDase1) | IC50 (m-NTPDase1) | Ki (h-NTPDase2) | IC50 (h-NTPDase2) | Ki (m-NTPDase2) | IC50 (m-NTPDase2) |
| --- | --- | --- | --- | --- | --- | --- | --- | --- | --- |
| O=C1Nc2ccccc2/C1=N/NC(=S)Nc1ccccc1 [8a, (Z)-2-(2-oxoindolin-3-ylidene)-N-phenylhydrazine-1-carbothioamide] | 38% | 24% | 42% | – | – | – | – | – | – |
| O=C1Nc2ccccc2/C1=N/NC(=S)Nc1ccc([N+](=O)[O-])cc1 [8b, (Z)-N-(4-nitrophenyl)-2-(2-oxoindolin-3-ylidene)hydrazine-1-carbothioamide] | 14% | – | 31% | – | – | – | – | – | – |
| O=C1Nc2ccccc2/C1=N/NC(=S)Nc1ccc(Cl)cc1 [8c, (Z)-N-(4-chlorophenyl)-2-(2-oxoindolin-3-ylidene)hydrazine-1-carbothioamide] | 28% | 46% | 36% | – | – | – | – | – | – |
| O=C1Nc2ccccc2/C1=N/NC(=S)Nc1ccc(F)cc1 [8d, (Z)-N-(4-fluorophenyl)-2-(2-oxoindolin-3-ylidene)hydrazine-1-carbothioamide] | 41% | 48% | 27% | – | – | – | – | – | – |
| COc1cccc(NC(=S)N/N=C2\C(=O)Nc3ccccc32)c1 [8e, (Z)-N-(3-methoxyphenyl)-2-(2-oxoindolin-3-ylidene)hydrazine-1-carbothioamide] | – | < 50% | 29% | 0.006 µM | 0.6 ± 0.03 µM | – | – | – | – |
| O=C1Nc2ccccc2/C1=N/NC(=S)NCc1ccccc1 [8f, (Z)-N-benzyl-2-(2-oxoindolin-3-ylidene)hydrazine-1-carbothioamide] | – | < 50% | 34% | 0.04 µM | 4.14 ± 0.13 µM | – | – | – | – |
| O=C1Nc2ccccc2/C1=N/NC(=S)Nc1cccc(Cl)c1 [8g, (Z)-N-(3-chlorophenyl)-2-(2-oxoindolin-3-ylidene)hydrazine-1-carbothioamide] | 48% | 29% | 36% | – | – | – | – | – | – |
| Cc1ccc(NC(=S)N/N=C2\C(=O)Nc3ccccc32)cc1 [8h, (Z)-2-(2-oxoindolin-3-ylidene)-N-(p-tolyl)hydrazine-1-carbothioamide] | 29% | 17% | 31% | – | – | – | – | – | – |
| Cc1cccc(C)c1NC(=S)N/N=C1\C(=O)Nc2ccccc21 [8i, (Z)-N-(2,6-dimethylphenyl)-2-(2-oxoindolin-3-ylidene)hydrazine-1-carbothioamide] | 20% | – | – | – | – | 0.17 µM | 0.41 ± 0.03 µM | 0.04 µM | 0.15 ± 0.01 µM |
| COc1ccc(OC)c(NC(=S)N/N=C2\C(=O)Nc3ccccc32)c1 [8j, (Z)-N-(2,5-dimethoxyphenyl)-2-(2-oxoindolin-3-ylidene)hydrazine-1-carbothioamide] | 24% | – | 27% | – | – | 0.04 µM | 0.11 ± 0.08 µM | – | – |
| COc1ccc(NC(=S)NNC2=c3ccccc3=NC2=O)cc1 [8k, (Z)-N-(4-methoxyphenyl)-2-(2-oxoindolin-3-ylidene)hydrazine-1-carbothioamide] | 42% | – | 29% | – | – | 0.07 µM | 0.16 ± 0.01 µM | – | – |
| O=C1Nc2ccccc2/C1=N/NC(=S)Nc1c(F)cccc1F [8l, (Z)-N-(2,6-difluorophenyl)-2-(2-oxoindolin-3-ylidene)hydrazine-1-carbothioamide] | – | < 50% | – | 0.03 µM | 3.22 ± 0.19 µM | – | – | 0.05 µM | 0.2 ± 0.01 µM |
| CCNC(=S)N/N=C1\C(=O)Nc2ccccc21 [8m, (Z)-N-ethyl-2-(2-oxoindolin-3-ylidene)hydrazine-1-carbothioamide] | – | 42% | – | 0.04 µM | 3.6 ± 0.02 µM | – | – | 0.41 µM | 1.5 ± 0.11 µM |
| Cc1ccc(C(=O)Nc2ccc(S(=O)(=O)O)c3cc(S(=O)(=O)O)cc(S(=O)(=O)O)c23)cc1NC(=O)c1cccc(NC(=O)Nc2cccc(C(=O)Nc3cc(C(=O)Nc4ccc(S(=O)(=O)O)c5cc(S(=O)(=O)O)cc(S(=O)(=O)O)c45)ccc3C)c2)c1 [Suramin, reference compound] | – | – | – | – | > 100 µM | 9.92 µM | 24.1 ± 3.01 µM | 5.67 µM | 21 ± 2 µM |
